Experimental data reported in ChEMBL document CHEMBL1131965, “Isoquinoline-6-carboxamides as potent and selective anti-human cytomegalovirus (HCMV) inhibitors” (Bioorg Med Chem Lett, 1999).
≈ marks a conversion by molar mass, not a printed value.

Key:
Hs68 [1] = experiment: Cytotoxicity in Hs 68 cell line by inhibition of cell proliferation; format: functional; settings: Homo sapiens
Hs68 [2] = experiment: Anti-HCMV activity in Hs 68 cell line by plaque reduction assay; format: functional, cell-based; settings: Homo sapiens

IC50 (Hs68 [2]) | SMILES | CC50 (Hs68 [1])
> 25 µg/mL | COc1ccccc1CNC(=O)c1ccc2ccccc2n1 | 10 µg/mL (≈ 34.2 µM)
0.5 µg/mL (≈ 2.87 µM) | O=C(O)c1cc2ccncc2cn1 | –
